Measurements: ChEMBL document CHEMBL1201862, “PubChem BioAssay data set” (2004)
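Interpolation was linear, between the two tested concentrations surrounding the appropriate level; five concentrations were tested over 48 hours in 96-well plates. At the GI50, growth is halved.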 The source made the active and inactive calls. Rule as the data show it: active = GI50 up to about 1.1 µM and inactive = higher.

What was measured:
Test in all cases: NCI anticancer screen, dose series, 48 h
A549 = test system: A549
COLO 205 = test system: COLO 205
HCC 2998 = test system: HCC 2998
HCT-116 = test system: HCT-116
HCT-15 = test system: HCT-15
HOP-62 = test system: HOP-62
HT-29 = test system: HT-29
MOLT-4 = test system: MOLT-4
OVCAR-3 = test system: OVCAR-3
OVCAR-4 = test system: OVCAR-4
OVCAR-5 = test system: OVCAR-5
RXF 393 = test system: RXF 393
SF-539 = test system: SF-539
SN12C = test system: SN12C
SNB-19 = test system: SNB-19
SNB-75 = test system: SNB-75
SR = test system: SR
A498 = test system: A498

| Structure (SMILES) | GI50 (A549) | GI50 (COLO 205) | GI50 (HCC 2998) | GI50 (HCT-116) | GI50 (HCT-15) | GI50 (HOP-62) | GI50 (HT-29) | GI50 (MOLT-4) | GI50 (OVCAR-3) | GI50 (OVCAR-4) | GI50 (OVCAR-5) | GI50 (RXF 393) | GI50 (SF-539) | GI50 (SN12C) | GI50 (SNB-19) | GI50 (SNB-75) | GI50 (SR) | GI50 (A498) |
| --- | --- | --- | --- | --- | --- | --- | --- | --- | --- | --- | --- | --- | --- | --- | --- | --- | --- | --- |
| Cc1ccc(S[C@@H](C)[C@@](O)(C(N)=O)c2ccccc2)cc1 | 42.1 µM (inactive) | 34.4 µM (inactive) | > 100 µM (inactive) | 35.2 µM (inactive) | 84.3 µM | 23.6 µM (inactive) | 41.3 µM (inactive) | 12.4 µM (inactive) | > 100 µM (inactive) | 21 µM (inactive) | > 100 µM (inactive) | 86.1 µM (inactive) | 25.6 µM (inactive) | > 100 µM (inactive) | > 100 µM (inactive) | > 100 µM (inactive) | > 10 µM (inactive) | – |
| c1ccc2c(c1)ncn2C1CCCCO1 (stereo not drawn) | > 100 µM (inactive) | > 100 µM (inactive) | > 100 µM (inactive) | > 100 µM (inactive) | > 100 µM | > 100 µM (inactive) | > 100 µM (inactive) | > 100 µM (inactive) | > 100 µM (inactive) | > 100 µM (inactive) | > 100 µM (inactive) | > 100 µM (inactive) | > 100 µM (inactive) | > 100 µM (inactive) | > 100 µM (inactive) | > 100 µM (inactive) | > 100 µM (inactive) | – |
| [O-]c1c[n+](CCCC[n+]2cc([O-])on2)no1 | > 100 µM (inactive) | > 100 µM (inactive) | > 100 µM (inactive) | > 100 µM (inactive) | > 100 µM | > 100 µM (inactive) | > 100 µM (inactive) | 22.8 µM (inactive) | > 100 µM (inactive) | > 100 µM (inactive) | > 100 µM (inactive) | > 100 µM (inactive) | > 100 µM (inactive) | > 100 µM (inactive) | > 100 µM (inactive) | > 100 µM (inactive) | – | > 100 µM (inactive) |
| COc1ccc(Cn2c(=O)c(OC)c(C)c3cc4ccccc4cc32)cc1 | 34.4 µM (inactive) | 20.1 µM (inactive) | 29 µM (inactive) | 18.6 µM (inactive) | 27 µM | 45.6 µM (inactive) | 31.4 µM (inactive) | 11.8 µM (inactive) | 19.9 µM (inactive) | 20.2 µM (inactive) | 54.5 µM (inactive) | 34.4 µM (inactive) | 32.7 µM (inactive) | 19.8 µM (inactive) | 48.1 µM (inactive) | 32.1 µM (inactive) | 21.3 µM (inactive) | – |
| COC1/C=C/C(C)C(C(C)C(OC)C(C)CCC(=O)C(C)C(CC(=O)O)OC)OC(=O)/C=C/C=C(\C)CC(OC)C(OC)C2=CC(=O)O[C@@H](C(C)C(OC)CC(OC)/C=C/C(C)C(O)C1)[C@H]2O (stereo partly drawn) | 0.0419 µM (active) | 0.0399 µM (active) | 0.0631 µM (active) | 0.00714 µM (active) | 0.0611 µM | 0.121 µM (active) | 0.026 µM (active) | 0.106 µM (active) | 0.188 µM (active) | 0.153 µM (active) | 0.265 µM (active) | – | – | 0.406 µM (active) | 0.217 µM (active) | 0.0311 µM (active) | 0.0622 µM (active) | 0.0815 µM (active) |
| Nc1ccc2nc3ccc(=O)cc-3n(-c3ccccc3)c2c1 | > 100 µM (inactive) | 41 µM (inactive) | > 100 µM (inactive) | 34.4 µM (inactive) | > 100 µM | 30.5 µM (inactive) | > 100 µM (inactive) | > 100 µM (inactive) | 31.8 µM (inactive) | > 100 µM (inactive) | > 100 µM (inactive) | 59.8 µM (inactive) | 31.6 µM (inactive) | > 100 µM (inactive) | > 100 µM (inactive) | 28.2 µM (inactive) | – | 32.8 µM (inactive) |
| Cc1ccc(S(=O)(=O)Nn2c(C)cc3ccc(S(=O)(=O)Nc4ccccc4[N+](=O)[O-])cc3c2=O)cc1 | 72.8 µM (inactive) | 18.6 µM (inactive) | > 100 µM (inactive) | 47.4 µM (inactive) | > 100 µM | 72.3 µM (inactive) | > 100 µM (inactive) | > 100 µM (inactive) | 74.1 µM (inactive) | > 100 µM (inactive) | > 100 µM (inactive) | – | > 100 µM (inactive) | 82.4 µM (inactive) | > 100 µM (inactive) | > 100 µM (inactive) | > 100 µM (inactive) | – |
| O=S(=O)(O)c1ccc(/N=N/c2ccc(/N=N/c3c(O)ccc4cc(S(=O)(=O)O)ccc34)cc2)cc1 | > 100 µM (inactive) | > 100 µM (inactive) | > 100 µM (inactive) | > 100 µM (inactive) | > 100 µM | > 100 µM (inactive) | > 100 µM (inactive) | > 100 µM (inactive) | > 100 µM (inactive) | – | > 100 µM (inactive) | > 100 µM (inactive) | > 100 µM (inactive) | – | > 100 µM (inactive) | > 100 µM (inactive) | > 100 µM (inactive) | – |
| COc1ccc([C@@]23Oc4cc(OC)cc(OC)c4[C@]2(O)[C@H](O)[C@H](C(N)=O)[C@H]3c2ccccc2)cc1 [DIDESMETHYLROCAGLAMIDE] | < 0.01 µM (active) | < 0.01 µM (active) | < 0.01 µM (active) | < 0.01 µM (active) | < 0.0142 µM | < 0.01 µM (active) | < 0.01 µM (active) | < 0.01 µM (active) | < 0.01 µM (active) | < 0.0126 µM (active) | 0.0102 µM (active) | < 0.01 µM (active) | < 0.01 µM (active) | < 0.01 µM (active) | < 0.01 µM (active) | – | – | < 0.01 µM (active) |
